Laboratory results published in paper PMC6479731 (ACS Synthetic Biology, 2019).

System: Cn Mdh2 CT4–1
Conditions: read-out: Km,MeOH; 1 mM NAD+, 100 mM glycine-NaOH pH 9.5, 50 mM MgSO4, 37 °C, no activator protein

Km: 88.8 ± 7.8 mM
Structure (SMILES): CO [methanol]
